Experimental data taken from patent publication US20240150339A1, “Compounds and Their Use as PDE4 Activators” (Mironid Limited, priority 2021, published 2024).

The molecules below were run on m-IMCD3 cells (assay: Inhibition of PGE2-stimulated in vitro cyst formation in 3D culture of m-IMCD3 cells). Settings: Mus musculus, mIMCD3, 144 h; 10 μM test compound; mean cyst area (%) compared to 100% for (DMSO + PGE2) and 0% for DMSO control; 100 nM PGE2; 6 days; read-out: % Cyst area after incubation with 10 μM test compound.
Format: cell-based, mouse
Procedure: HEK 293 and MDCK cells (Public Health England, Cell Culture Collections) were maintained in Dulbecco's Modified Eagle's Medium (DMEM) supplemented with 10% (v/v) fetal bovine serum (FBS) (Seralab), 2 mM L-glutamine and 100 U/ml penicillin streptomycin cocktail (ThermoFisher); termed complete media. Clonal HEK 293 cell lines were maintained in complete media supplemented with 0.6 mg/mL G418 (Enzo Life Sciences). Mouse inner medullary collecting duct (m-IMCD3) cells [American Type Culture Collection (ATCC)] were maintained in media consisting of DMEM/Hams F-12 50/50 Mix (DMEM F12; Corning) supplemented with penicillin streptomycin cocktail (100 U/ml) and FBS (10% v/v) (DMEM F12-10% FBS).
The mouse Inner Medullary Collecting Duct cell line (m-IMCD3) spontaneously forms cystic spheroids in 3D culture with a Type 1 collagen/Matrigel extracellular matrix. This process can be stimulated with agents which raise intracellular cAMP, such as PGE2, and is used as an in vitro model for the formation of cystic structures in the kidneys of patients with ADPKD.
Rat Collagen I (Fisher Scientific) is prepared on ice by neutralising with 1M NaOH and diluting with a 2×volume of DMEM/F12+10% FBS for coating plate (coating mix) and a 2.2 volume of DMEM/F12+10% FBS for cell plating (plating mix). This is mixed 1:1.1 with ice cold Matrigel (Corning) for coating plates (coating mix), and 1:0.95 with Matrigel for cell plating (plating mix).
The assay is conducted in the wells of a 96-well plate culture dish using a total volume of 130 μl of collagen/Matrigel/DMEM F12-10% FBS suspension in growth media for each matrix plug per individual well. Initially, 30 μl of collagen/Matrigel/DMEM F12-10% FBS (coating mix) is added into the well of a 96 well plate and the collagen is set to a gel by incubating at 37° C. for at least 15 minutes. A second layer of 100 μl collagen/Matrigel suspension (plating mix) containing m-IMCD3 cells (2.75×10^6 m-IMCD3 cells per 96-well plate) is layered over the coating mix and the collagen/Matrigel/cell mix again set to a gel by incubating at 37° C. Cell cultures are maintained at 37° C. in an atmosphere of 5% CO2, 95% air.
Between 18 and 24h after plating, test compound(s) as DMSO stock solutions [0.1% (v/v) final DMSO concentration] and PGE2 (100 nM final concentration) in DMEM F12-10% FBS are added in quadruplicate wells per condition. Media, togetherwith the test compound and PGE2 are replenished after 2 or 3 days. After 6 days of culture z stack images of the wells are captured using the Nikon Eclipse Ti2-E microscope. Nikon General Analysis software is used to measure the following parameters in each well: the mean cyst area, the number of cysts, and the total cyst area.
PDE4 long form activators inhibited in vitro cyst formation in m-IMCD3 cells. Data are shown in FIG. 2 and Table 5 as mean cyst area (%), compared to 100% for (DMSO+PGE2) and 0% for DMSO control.

| SMILES | activity at 10 µM [%] |
| --- | --- |
| O=C(N[C@H]1CCOc2ccccc21)c1ccc2nc([C@H]3CCCNC3)sc2c1 (single isomer, unassigned) [Example 176] | 1 |
| Cc1ncccc1-c1nc2ccc(C(=O)NCc3ccc(F)cc3)cc2s1 [Example 2, N-(4-fluorobenzyl)-2-(2-methylpyridin-3-yl)benzo[d]thiazole-6-carboxamide] | -9 |
| COc1ccc(CNC(=O)c2ccc3nc(-c4cccnc4C)sc3c2)cc1 [Example 3, N-(4-methoxybenzyl)-2-(2-methylpyridin-3-yl)benzo[d]thiazole-6-carboxamide] | 23 |
| Cc1ncccc1-c1nc2ccc(C(=O)NCc3cccc(F)c3)cc2s1 [Example 4, N-(3-fluorobenzyl)-2-(2-methylpyridin-3-yl)benzo[d]thiazole-6-carboxamide] | 6 |
| Cc1ncccc1-c1nc2ccc(C(=O)N[C@H]3CCc4ccccc43)cc2s1 [Example 5, (S)-N-(2,3-dihydro-1H-inden-1-yl)-2-(2-methylpyridin-3-yl)benzo[d]thiazole-6-carboxamide] | 1 |
| CC(C)c1ccc(-c2nc3ccc(C(=O)N[C@H]4CCOc5ccccc54)cc3s2)cn1 [Example 28, (S)-N-(chroman-4-yl)-2-(6-isopropylpyridin-3-yl)benzo[d]thiazole-6-carboxamide] | 26 |
| CCc1ccc(-c2nc3ccc(C(=O)N[C@H]4CCOc5ccccc54)cc3s2)cn1 [Example 29, (S)-N-(chroman-4-yl)-2-(6-ethylpyridin-3-yl)benzo[d]thiazole-6-carboxamide] | 22 |
| Cc1cncc(-c2nc3ccc(C(=O)NCc4ccccc4)cc3s2)c1 [Example 30, N-benzyl-2-(5-methylpyridin-3-yl)benzo[d]thiazole-6-carboxamide] | 21 |
| Cc1cncc(-c2nc3ccc(C(=O)NCc4cccc(Cl)c4)cc3s2)c1 [Example 34, N-[(3-chlorophenyl)methyl]-2-(5-methylpyridin-3-yl)benzo[d]thiazole-6-carboxamide] | 26 |
| COc1cccc(CNC(=O)c2ccc3nc(-c4cncc(C)c4)sc3c2)c1 [Example 36, N-(3-methoxybenzyl)-2-(5-methylpyridin-3-yl)benzo[d]thiazole-6-carboxamide] | 30 |
| Cc1ccnc(C)c1-c1nc2ccc(C(=O)N[C@H]3CCOc4ccccc43)cc2s1 [Example 52, (S)-N-(chroman-4-yl)-2-(2,4-dimethylpyridin-3-yl)benzo[d]thiazole-6-carboxamide] | 24 |
| O=C(N[C@H]1CCOc2ccccc21)c1ccc2nc(N3CCOCC3)sc2c1 [Example 69, (S)-N-(chroman-4-yl)-2-morpholinobenzo[d]thiazole-6-carboxamide] | 20 |
| COC1CCN(c2nc3ccc(C(=O)N[C@H]4CCOc5ccccc54)cc3s2)CC1 [Example 70, (S)-N-(chroman-4-yl)-2-(4-methoxypiperidin-1-yl)benzo[d]thiazole-6-carboxamide] | -18 |
| CN1CCN(c2nc3ccc(C(=O)N[C@H]4CCOc5ccccc54)cc3s2)CC1 [Example 71, (S)-N-(chroman-4-yl)-2-(4-methylpiperazin-1-yl)benzo[d]thiazole-6-carboxamide] | -1 |
| CCN1CCN(c2nc3ccc(C(=O)N[C@@H]4CCOc5ccccc54)cc3s2)CC1 [Example 73, (R)-N-(chroman-4-yl)-2-(4-ethylpiperazin-1-yl)benzo[d]thiazole-6-carboxamide] | 26 |
| CC(C)N1CCN(c2nc3ccc(C(=O)N[C@H]4CCOc5ccccc54)cc3s2)CC1 [Example 74, (S)-N-(chroman-4-yl)-2-(4-isopropylpiperazin-1-yl)benzo[d]thiazole-6-carboxamide] | 8 |
| CC(C)(C)N1CCN(c2nc3ccc(C(=O)N[C@H]4CCOc5ccccc54)cc3s2)CC1 [Example 75, (S)-2-(4-(tert-butyl)piperazin-1-yl)-N-(chroman-4-yl)benzo[d]thiazole-6-carboxamide] | -1 |

| SMILES | activity at 10 µM [%] |
| --- | --- |
| O=C(N[C@H]1CCOc2ccccc21)c1ccc2nc(N3C[C@H]4C[C@@H]3CN4)sc2c1 [Example 78, 2-((1R,4R)-2,5-diazabicyclo[2.2.1]heptan-2-yl)-N-((S)-chroman-4-yl)benzo[d]thiazole-6-carboxamide] | 24 |
| CCN1CCN(c2nc3ccc(C(=O)NCc4ccc(F)cc4)cc3s2)CC1 [Example 80, 2-(4-ethylpiperazin-1-yl)-N-(4-fluorobenzyl)benzo[d]thiazole-6-carboxamide] | 26 |
| CCN1CCN(c2nc3ccc(C(=O)NC4CCCC4)cc3s2)CC1 [Example 81, N-cyclopentyl-2-(4-ethylpiperazin-1-yl)benzo[d]thiazole-6-carboxamide] | 7 |
| CCN1CCN(c2nc3ccc(C(=O)NC(C)C)cc3s2)CC1 [Example 82, 2-(4-ethylpiperazin-1-yl)-N-isopropylbenzo[d]thiazole-6-carboxamide] | 6 |
| O=C(N[C@H]1CCOc2c(F)cccc21)c1ccc2nc(N3CCNCC3)sc2c1 [Example 85, (S)-N-(8-fluorochroman-4-yl)-2-(piperazin-1-yl)benzo[d]thiazole-6-carboxamide] | -12 |
| O=C(N[C@@H]1CCOc2cc(F)ccc21)c1ccc2nc(N3CCNCC3)sc2c1 [Example 88, (R)-N-(7-fluorochroman-4-yl)-2-(piperazin-1-yl)benzo[d]thiazole-6-carboxamide] | 22 |
| COc1ccc2c(c1)OCC[C@H]2NC(=O)c1ccc2nc(N3CCNCC3)sc2c1 [Example 93, (R)-N-(7-methoxychroman-4-yl)-2-(piperazin-1-yl)benzo[d]thiazole-6-carboxamide] | 9 |
| O=C(N[C@H]1CCc2ccccc21)c1ccc2nc(N3CCNCC3)sc2c1 [Example 96, (S)-N-(2,3-dihydro-1H-inden-1-yl)-2-(piperazin-1-yl)benzo[d]thiazole-6-carboxamide] | 2 |
| O=C(N[C@H]1CCc2cccc(F)c21)c1ccc2nc(N3CCNCC3)sc2c1 [Example 98, (S)-N-(7-fluoro-2,3-dihydro-1H-inden-1-yl)-2-(piperazin-1-yl)benzo[d]thiazole-6-carboxamide] | 27 |
| O=C(N[C@@H]1CCc2c(F)cccc21)c1ccc2nc(N3CCNCC3)sc2c1 [Example 104, (R)-N-(4-fluoro-2,3-dihydro-1H-inden-1-yl)-2-(piperazin-1-yl)benzo[d]thiazole-6-carboxamide] | 30 |
| COc1ccc2c(c1)[C@H](NC(=O)c1ccc3nc(N4CCNCC4)sc3c1)CC2 [Example 107, (R)-N-(6-methoxy-2,3-dihydro-1H-inden-1-yl)-2-(piperazin-1-yl)benzo[d]thiazole-6-carboxamide] | 17 |
| COc1ccc2c(c1)CC[C@@H]2NC(=O)c1ccc2nc(N3CCNCC3)sc2c1 [Example 108, (S)-N-(5-methoxy-2,3-dihydro-1H-inden-1-yl)-2-(piperazin-1-yl)benzo[d]thiazole-6-carboxamide] | 22 |
| O=C(N[C@H]1CCOc2ccccc21)c1ccc2nc(N3CCN(CCO)CC3)sc2c1 [Example 120, (S)-N-(chroman-4-yl)-2-(4-(2-hydroxyethyl)piperazin-1-yl)benzo[d]thiazole-6-carboxamide] | -5 |
| O=C(N[C@H]1CCOc2ccccc21)c1ccc2nc(N3CC4CCC(C3)N4)sc2c1 [Example 121, 2-(3,8-diazabicyclo[3.2.1]octan-3-yl)-N-((S)-chroman-4-yl)benzo[d]thiazole-6-carboxamide] | 15 |
| O=C(NCc1ccc(F)cc1)c1ccc2nc(C3CCNCC3)sc2c1 [Example 124, N-(4-fluorobenzyl)-2-(piperidin-4-yl)benzo[d]thiazole-6-carboxamide] | 11 |
| O=C(N[C@H]1CCc2ccccc21)c1ccc2nc(C3CCNCC3)sc2c1 [Example 127, (S)-N-(2,3-dihydro-1H-inden-1-yl)-2-(piperidin-4-yl)benzo[d]thiazole-6-carboxamide] | 13 |
